According to patent publication US9844541B2, “Methods of modulating follicle stimulating hormone activity” (Strasspharma LLC, priority 2012, dated 2017):

Legend:
[1] = tested on: follicle stimulating hormone (FSH) receptor (FSH-R); experiment: Conclusion from endocrine profile: effect on FSH receptor signaling; format: in vivo, human; details: concluded from the endocrine profile of one patient
Method: (§1) Results of reproductive endocrine testing were unique and novel (Table 1). […] elevated FSH and low estrogen level were indicative of a markedly diminished ovarian reserve. However, the presence of preantral follicles and the high AMH value indicated preservation of normal ovarian potential and possible reversal of effect following cessation of therapy.
The endocrine profile of a patient who developed amenorrhea while taking vismodegib (Erivedge™) was determined. […] Secondary amenorrhea, […] of established menses, may result from a variety of conditions, including suppression of the pituitary release of FSH or its hypothalamic control via gonadotropin releasing hormone GnRH. This can be drug induced, but patients presenting in this manner typically have very low or non-detectable gonadotropin (FSH and LH) levels and low estrogen levels. Alternatively, patients with ovarian failure (follicle depletion or menopause) present with high gonadotropins, which may be induced by radiation and/or medication such as chemotherapy.
This led to the conclusion that the cause of amenorrhea in at least this patient treated with visomdegib was due to blockage of the follicle stimulating hormone (FSH) receptor (FSH-R) signaling.

[2] = Reproductive endocrine testing of patient treated with vismodegib (case study); format: in vivo, human; details: patient on vismodegib 150 mg daily, about six months
Excerpt: (§2) A nulliparous person with a known diagnosis of Gorlin syndrome (Basal cell carcinoma nevus syndrome: Online Mendelian Inheritance in Man #109400) presented with more than 100 discrete BCC papules on the upper trunk and head, and neck regions. They were diagnosed and treated for lymphoma in 1988, prior to the BCCNS diagnosis and received chemotherapy and radiation therapy to the mantle zone, followed by radical neck dissection. They have remained in remission and their therapy had no apparent effect on menstrual function. They experienced menarche and had regular menses at 30 to 35 day intervals until starting the current therapy. Medications included synthroid 0.15 mg for longstanding hypothyroidism.
(§3) Several of their BCC lesions, while not clinically large, appeared in this area of combined radiation and surgical sclerosis overlying the carotid sheath. Multidisciplinary consultation recommended against further surgery. They commenced therapy with vismodegib (Erivedge™ Genentech, Inc., San Francisco, Calif.) 150 mg daily. […] Shortly thereafter they underwent a reproductive endocrinology evaluation.
as §1

[3] = oral therapy of BCC; cited from earlier work
[4] = tested on: BCC lesions (Gorlin syndrome); experiment: Clinical response of BCC lesions in patient treated with vismodegib (case study); format: in vivo, human; details: 150 mg daily, six months after commencing therapy
Excerpt: as §2, §3

[5] = Adverse effects and reproductive examination in patient treated with vismodegib (case study); format: in vivo, human; details: 150 mg daily
Excerpt: as §2, §3

[6] = shortly after six months of therapy

For `CS(=O)(=O)c1ccc(C(=O)Nc2ccc(Cl)c(-c3ccccn3)c2)c(Cl)c1` [vismodegib], the “Effect on FSH action at FSH-R” value [1] was “blocked the action of FSH on the FSH-R”, the “Follicle stimulating hormone (FSH) level” value ([2]; follicular phase normal 2-8 IU/L) was 16.0 IU/L and the Progesterone level ([2]; follicular phase range 0.2-1.5) was 0.4. The Estradiol level ([2]; follicular phase range 12.5-166 pg/ml) was 26.9 pg/mL, the “Anti-mulerian hormone (AMH) level” value ([2]; normal range <6.9) was 2.6 and the “Leutinizing hormone (LH) level” value ([2]; ovulation phase range 14.0-95.6) was 25.3. The Major side effects [3] was “dysgeusia, alopecia, leg cramping, and gastrointestinal disturbances”, the “Clinical resolution of BCC lesions” value [4] was “near complete clinical resolution of all lesions” and the Side effects ([5]; approximately four months after onset of amenorrhea) was “hair loss, slight dysgeusia, and minor leg cramping”. The Menstrual function ([5]; one month after start) was “became amenorrheic”, the “Transvaginal ultrasonography of ovaries” value [5, 6] was “normal ovaries, bilaterally containing multiple pre-antral follicles” and the Vaginal exam findings [5, 6] was “moderate atrophic vaginal changes suggesting hypoestrogenism”.
